{"source": "paper PMC11677752", "about": "(Pharmaceutics, 2024)", "key": {"[1]": {"system": "MRP2", "conditions": "cited from earlier work"}, "[2]": {"assay": "Regional luminal fluid pH in rats", "format": "in vivo", "conditions": "lansoprazole 5 mg/mL/kg i.p. 1 h before oral 5-ASA solution in 5% NaHCO3; 3 h after 5-ASA; untreated control rats […] ± 0.60, p = 0.07"}, "[3]": {"system": "peptide transporter 1 (PEPT1)", "parameters": "method as in PMID 28867741", "conditions": "cited from earlier work"}, "[4]": {"assay": "5-ASA membrane distribution study in rats (GI membrane concentrations)", "conditions": "fed rats, oral 30 mg/2.2 mL/kg", "protocol": "The animal study was performed according to the Care and Use of Laboratory Animals of the Committee for Animal Experiments of Fukuyama University (2023-A-10). Male Sprague Dawley rats were purchased from Japan SLC, Inc. (Hamamatsu, Japan). After feeding for several days, the rats that weighed 200 to 300 g were used for the membrane distribution studies. […] Separately, the fed rats were treated with lansoprazole, which was dissolved with a small amount of dimethyl sulfoxide (DMSO) and then diluted with physiological saline to make a lansoprazole solution (5 mg/mL); this solution was injected intraperitoneally at a 5 mg/mL/kg dose. […] One milliliter of water was poured into each isolated segment’s lumen and the luminal fluid pH was measured using a compact pH meter (HORIBA, LAQUA twin®, Kyoto, Japan). The intestinal tract was opened and cleaned with ice-cold 0.9% NaCl solution, frozen in liquid nitrogen, and stored at −80 °C until analysis.\nAn L-column 2 ODS (150 mm × 4.6 mm, particle size 5 µm, CERI Co., Ltd., Saitama, Japan) was used, and the mobile phase was a mixture of 0.1 M acetic acid, acetonitrile, and triethylamine (920:100:2, v/v/v). The mobile phase flow rate was 1 mL/min. […] The HPLC system (Shimadzu, Kyoto, Japan) comprised a model LC20AD pump, a 20 µL fixed injection loop, and a fluorescence spectrophotometer (Shimadzu, RF10AXL). […]"}, "[5]": {"parameters": "method as in PMID 3557190", "conditions": "healthy volunteers, intravenous dose 0.50 g, oral dose 2.42 g; cited from earlier work"}, "[6]": {"system": "NAT", "conditions": "cited from earlier work; for Inhibition of 5-ASA Ac-CoA-dependent metabolism: alternative NAT substrates"}, "[7]": {"conditions": "three animal species (rats, rabbits, and pigs); cited from earlier work"}}, "data": [{"molecule": "O=c1c(O)c(-c2ccc(O)c(O)c2)oc2cc(O)cc(O)c12", "note": "[quercetin]", "values": [{"measurement": "PappBA/PappAB permeability ratio of AC-5-ASA in presence of the MRP inhibitor", "setting": "[1]; Caco-2 cells", "result": "~1"}]}, {"molecule": "CC(=O)Nc1ccc(O)c(C(=O)O)c1", "note": "[AC-5-ASA, N-acetyl-5-ASA]", "values": [{"measurement": "PappBA/PappAB ratio", "setting": "[1]; Caco-2 cells", "result": 4.89}, {"measurement": "Substrate for MRP2", "setting": "[1]", "result": "is a substrate"}]}, {"molecule": "Cc1c(OCC(F)(F)F)ccnc1C[S+]([O-])c1nc2ccccc2[nH]1", "note": "(centres unmarked) [lansoprazole]", "values": [{"measurement": "Gastric pH", "setting": "[2]", "result": "4.77 ± 0.12"}]}, {"molecule": "Nc1ccc(O)c(C(=O)O)c1", "note": "[5-ASA, 5-Aminosalicylic acid]", "values": [{"measurement": "Substrate for MRP2", "setting": "[1]", "result": "is not a substrate and not"}, {"measurement": "Inhibition of PEPT1-mediated uptake transport", "setting": "[3]", "result": "can inhibit"}, {"measurement": "Time for remaining unabsorbed 5-ASA in the small intestine to reach the distal intestine", "setting": "[4]", "result": "≤ 8", "unit": "h"}, {"measurement": "Time for some fraction of orally administered 5-ASA to reach the cecum/proximal colon", "setting": "[4]", "result": "≤ 3", "unit": "h"}, {"measurement": "Absolute oral bioavailability", "setting": "[5]", "result": 15.5, "unit": "%"}, {"measurement": "Km", "setting": "[6]; saturable, read-out: Km of Ac-CoA-dependent metabolism", "result": 5.8, "unit": "µM"}]}, {"molecule": "Nc1ccc(C(=O)N[C@@H](CCC(=O)O)C(=O)O)cc1", "note": "[p-aminobenzoylglutamate]", "values": [{"measurement": "Inhibition of 5-ASA Ac-CoA-dependent metabolism", "setting": "[6]", "result": "inhibited"}]}, {"molecule": "CN(C)C(=O)CCSC(SCCC(=O)O)c1cccc(/C=C/c2ccc3ccc(Cl)cc3n2)c1", "note": "(centres unmarked) [MK571]", "values": [{"measurement": "PappBA/PappAB permeability ratio of AC-5-ASA in presence of the MRP inhibitor", "setting": "[1]; Caco-2 cells", "result": "~1"}]}, {"molecule": "C[C@]12C=CC(=O)C=C1CC[C@@H]1[C@@H]2[C@@H](O)C[C@@]2(C)[C@H]1CC[C@]2(O)C(=O)CO", "note": "[prednisolone]", "values": [{"measurement": "Correlation of solubility with gastrointestinal pH", "setting": "[7]", "result": "not correlated significantly"}]}, {"molecule": "NNC(=O)c1ccncc1", "note": "[isoniazid]", "values": [{"measurement": "Inhibition of 5-ASA Ac-CoA-dependent metabolism", "setting": "[6]", "result": "inhibited"}]}]}
